Test results published in US5208152A, “Catalysts of Diels-Alder reactions, methods and catalysts therefor” (The Scripps Research Institute, priority 1992, dated 1993).

Test system: monoclonal catalytic antibody 1E9 (reductively methylated), secreted by hybridoma 1E9, ATCC HB 10261
Assay: Antibody-catalyzed Diels-Alder [4+2] cycloaddition/fragmentation reaction between TCTD and N-ethylmaleimide
Assay type: biochemical, mouse
Description: Because TCTD reacts with lysine residues on the surface of the immunoglobulins, it was necessary to reduce the nucleophilicity of the amino groups by exhaustive reductive methylation [Jentoft et al., J. Biol. Chem., 254:4359 (1979)]. […] Chemical modification of immunoglobulins in this way is likely to be of general value, as it will permit reactive molecules like epoxides, Michael acceptors or other alkylating agents to be employed as substrates for catalytic antibodies.
The methylated antibodies were assayed at 25 degrees C. for their ability to promote the Diels-Alder [4+2] cycloaddition/fragmentation reaction between TCTD and N-ethylmaleimide (NEM) in aqueous buffer (20 mM MES, 100 mM NaCl, pH 6.0) containing 10 percent acetonitrile. Cycloadditions were followed by monitoring the disappearance of TCTD at 330 nm or by analytical reverse-phase HPLC. HPLC kinetic assays were performed on a Vydac C-18 218-TP-510 reverse phase column (10 mm×25 cm, 2 mL/min, gradient elution from 100 percent H2 O to 60:40 CH3 CN:H2 O in 20 minutes, then 5 minutes at the latter solvent composition) using acetophenone as an internal standard.

Row | Structure (SMILES) | inhibition of the catalyzed reaction (preincubation of the antibody with an equimolar amount of the inhibitor) | apparent kcat (NEM concentration varied, 0.61 mM TCTD held constant, 25 degrees C, 20 mM MES, 100 mM NaCl, pH 6.0, 10 percent acetonitrile) | Km (NEM concentration varied, 0.61 mM TCTD held constant, 25 degrees C, 20 mM MES, 100 mM NaCl, pH 6.0, 10 percent acetonitrile, read-out: apparent (Km)NEM)
1 | CCN1C(=O)C2C(C1=O)C1(Cl)C(Cl)=C(Cl)C2(Cl)C1(Cl)Cl (stereo not drawn) [Compound 3] | stopped the oatalyzed reaction completely | – | –
2 | CCN1C(=O)C=CC1=O [NEM, N-ethylmaleimide] | – | 0.0717 ± 0.005 s⁻¹ | 21 ± 4 mM
